Measurements as given in PubChem BioAssay (NCI).
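Tested at 5 concentrations; 48 h exposure; 96-well plates; endpoints linearly interpolated, else capped at highest concentration. TGI: total growth inhibition.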

Tested on: SK-MEL-2 melanoma
Test: growth of human tumour cells (NCI), 48 h

Row | Compound | TGI [µM]
1 | Fc1ccc(C(OCCN2CCC3CCC(C2)N3C/C=C/c2ccco2)c2ccc(F)cc2)cc1 (stereo not drawn) | 26.2
2 | O=c1c2nc3ccccc3c(=O)n2ncn1-c1ccccc1Cl | > 100
3 | CC(=O)OCC1OC(OC2CC3C(C)(C)C(OC(C)=O)CC[C@]3(C)C3CCC45CC4(CCC5[C@@H](C)C[C@H](O)C(O)C(C)(C)O)[C@]23C)C(O)C(O)C1O (stereo partly drawn) | > 10

Tested on: SK-MEL-28 melanoma
Test: growth of human tumour cells (NCI), 48 h

Row | Compound | TGI [µM]
4 | Cc1nn(-c2ccccc2)c(C)c1/C=N/N=C1\SCC(=O)N1c1ccccc1 | 67.9
5 | OCC(O)C(Cl)CCl (stereo not drawn) | > 100
6 | O=C1NCc2ccccc2S(=O)(=O)n2cccc21 | > 100
7 | O=C(/C=C/c1ccccc1)NNC(=O)c1c(Cl)c(Cl)c(Cl)c(Cl)c1-c1nc2ccccc2[nH]1 | > 100
8 | Fc1ccc(C(OCCN2CCC3CCC(C2)N3C/C=C/c2ccco2)c2ccc(F)cc2)cc1 (stereo not drawn) | 19.5
9 | O=c1c2nc3ccccc3c(=O)n2ncn1-c1ccccc1Cl | > 100
10 | CC(=O)OCC1OC(OC2CC3C(C)(C)C(OC(C)=O)CC[C@]3(C)C3CCC45CC4(CCC5[C@@H](C)C[C@H](O)C(O)C(C)(C)O)[C@]23C)C(O)C(O)C1O (stereo partly drawn) | > 10

Tested on: SK-MEL-5 melanoma
Test: growth of human tumour cells (NCI), 48 h

Row | Compound | TGI [µM]
11 | Cc1nn(-c2ccccc2)c(C)c1/C=N/N=C1\SCC(=O)N1c1ccccc1 | 30.3
12 | OCC(O)C(Cl)CCl (stereo not drawn) | > 100
13 | O=C1NCc2ccccc2S(=O)(=O)n2cccc21 | > 100
14 | O=C(/C=C/c1ccccc1)NNC(=O)c1c(Cl)c(Cl)c(Cl)c(Cl)c1-c1nc2ccccc2[nH]1 | 62.4
15 | Fc1ccc(C(OCCN2CCC3CCC(C2)N3C/C=C/c2ccco2)c2ccc(F)cc2)cc1 (stereo not drawn) | 14.4
16 | O=c1c2nc3ccccc3c(=O)n2ncn1-c1ccccc1Cl | > 100
17 | CC(=O)OCC1OC(OC2CC3C(C)(C)C(OC(C)=O)CC[C@]3(C)C3CCC45CC4(CCC5[C@@H](C)C[C@H](O)C(O)C(C)(C)O)[C@]23C)C(O)C(O)C1O (stereo partly drawn) | > 10

Tested on: SK-OV-3 ovarian
Test: growth of human tumour cells (NCI), 48 h

Row | Compound | TGI [µM]
18 | Cc1nn(-c2ccccc2)c(C)c1/C=N/N=C1\SCC(=O)N1c1ccccc1 | 83
19 | OCC(O)C(Cl)CCl (stereo not drawn) | > 100
20 | O=C1NCc2ccccc2S(=O)(=O)n2cccc21 | > 100
21 | O=C(/C=C/c1ccccc1)NNC(=O)c1c(Cl)c(Cl)c(Cl)c(Cl)c1-c1nc2ccccc2[nH]1 | 54.9
22 | Fc1ccc(C(OCCN2CCC3CCC(C2)N3C/C=C/c2ccco2)c2ccc(F)cc2)cc1 (stereo not drawn) | 30.3
23 | O=c1c2nc3ccccc3c(=O)n2ncn1-c1ccccc1Cl | > 100
24 | CC(=O)OCC1OC(OC2CC3C(C)(C)C(OC(C)=O)CC[C@]3(C)C3CCC45CC4(CCC5[C@@H](C)C[C@H](O)C(O)C(C)(C)O)[C@]23C)C(O)C(O)C1O (stereo partly drawn) | > 10

Tested on: SN12C renal
Test: growth of human tumour cells (NCI), 48 h

Row | Compound | TGI [µM]
25 | Cc1nn(-c2ccccc2)c(C)c1/C=N/N=C1\SCC(=O)N1c1ccccc1 | > 100
26 | OCC(O)C(Cl)CCl (stereo not drawn) | > 100
27 | O=C1NCc2ccccc2S(=O)(=O)n2cccc21 | > 100
28 | O=C(/C=C/c1ccccc1)NNC(=O)c1c(Cl)c(Cl)c(Cl)c(Cl)c1-c1nc2ccccc2[nH]1 | 63.4
29 | Fc1ccc(C(OCCN2CCC3CCC(C2)N3C/C=C/c2ccco2)c2ccc(F)cc2)cc1 (stereo not drawn) | 24.8
30 | O=c1c2nc3ccccc3c(=O)n2ncn1-c1ccccc1Cl | > 100
31 | CC(=O)OCC1OC(OC2CC3C(C)(C)C(OC(C)=O)CC[C@]3(C)C3CCC45CC4(CCC5[C@@H](C)C[C@H](O)C(O)C(C)(C)O)[C@]23C)C(O)C(O)C1O (stereo partly drawn) | > 10

Tested on: SNB-19 CNS
Test: growth of human tumour cells (NCI), 48 h

Row | Compound | TGI [µM]
32 | Cc1nn(-c2ccccc2)c(C)c1/C=N/N=C1\SCC(=O)N1c1ccccc1 | > 100
33 | OCC(O)C(Cl)CCl (stereo not drawn) | > 100
34 | O=C1NCc2ccccc2S(=O)(=O)n2cccc21 | > 100
35 | Fc1ccc(C(OCCN2CCC3CCC(C2)N3C/C=C/c2ccco2)c2ccc(F)cc2)cc1 (stereo not drawn) | 32.8
36 | O=c1c2nc3ccccc3c(=O)n2ncn1-c1ccccc1Cl | > 100
37 | CC(=O)OCC1OC(OC2CC3C(C)(C)C(OC(C)=O)CC[C@]3(C)C3CCC45CC4(CCC5[C@@H](C)C[C@H](O)C(O)C(C)(C)O)[C@]23C)C(O)C(O)C1O (stereo partly drawn) | > 10

Tested on: SNB-75 CNS
Test: growth of human tumour cells (NCI), 48 h

Row | Compound | TGI [µM]
38 | Cc1nn(-c2ccccc2)c(C)c1/C=N/N=C1\SCC(=O)N1c1ccccc1 | 55
39 | OCC(O)C(Cl)CCl (stereo not drawn) | > 100
40 | O=C1NCc2ccccc2S(=O)(=O)n2cccc21 | > 100
41 | O=C(/C=C/c1ccccc1)NNC(=O)c1c(Cl)c(Cl)c(Cl)c(Cl)c1-c1nc2ccccc2[nH]1 | 59.2
42 | Fc1ccc(C(OCCN2CCC3CCC(C2)N3C/C=C/c2ccco2)c2ccc(F)cc2)cc1 (stereo not drawn) | 30
43 | O=c1c2nc3ccccc3c(=O)n2ncn1-c1ccccc1Cl | > 100
44 | CC(=O)OCC1OC(OC2CC3C(C)(C)C(OC(C)=O)CC[C@]3(C)C3CCC45CC4(CCC5[C@@H](C)C[C@H](O)C(O)C(C)(C)O)[C@]23C)C(O)C(O)C1O (stereo partly drawn) | > 10

Tested on: SR leukemia
Test: growth of human tumour cells (NCI), 48 h

Row | Compound | TGI [µM]
45 | Cc1nn(-c2ccccc2)c(C)c1/C=N/N=C1\SCC(=O)N1c1ccccc1 | > 100
46 | OCC(O)C(Cl)CCl (stereo not drawn) | > 100
47 | O=C1NCc2ccccc2S(=O)(=O)n2cccc21 | > 100
48 | O=C(/C=C/c1ccccc1)NNC(=O)c1c(Cl)c(Cl)c(Cl)c(Cl)c1-c1nc2ccccc2[nH]1 | > 100
